# Assay results from patent US4256742A, “Antidepressant oxime ethers of dibenzocycloheptaziridones” (E. I. Du Pont de Nemours and Company, priority 1979, dated 1981).
# Where a name gives a salt, the structure may show the parent alone. Read-outs that look alike come from different tables or passages of the source.
# How the values were obtained:
# [1] = tested on: tetrabenazine-induced sedation and depression; experiment: Antitetrabenazine test: prevention of tetrabenazine-induced sedation and ptosis in mice; type: in vivo, mice (Carworth CF1 S female); conditions: tetrabenazine 32 mg/kg i.p. 30 min later, examined 1 h after antagonist; for ED50: Mus musculus
# Procedure: This mouse test is predictive of human antidepressant response (Everett, "The Dopa Response Petentiation Test and Its Use in Screening for Antidepressant Drugs", pp. 164-167 in "Antidepressant Drugs" [Proceedings of the First International Symposium], S. Garattini and M. N. G. Dukes, eds. 1967).
# Groups of 10 Carworth CF1 S female mice, 18-21 g each, were fasted 1.5 hours and were intubated with antagonist compounds at oral doses of 0, 0.33, 1, 3, 9, 27, and 81 mg/kg in 0.20 ml of 1% Methocel. The mice were challenged 30 minutes later with tetrabenazine (as the methane-sulfonate),32 mg/kg intraperitoneally (dissolved in 0.20 ml 0.05 M KCl at pH 2.0). One hour after antagonist (30 minutes after tetrabenazine), the mice were examined for signs of exploratory activity and ptosis (eyelid closure). Normal exploratory activity (relief from sedation) was recorded when a mouse lifted by the tail from a group of 10 in a testing box and placed on a stainless steel testing box lid (12.5"×8" with 0.33" mesh) either turned its head horizontally 30° in both directions or moved to the edge of the screen within 10 seconds after being placed on the screen. Relief from ptosis was recorded when exactly two seconds after placing the mouse facing the observer, lid closure was less than 50% in both eyes. Table 1 gives the results in mg/kg for examples of the invention and for the established standard antidepressant, amitriptyline.
# [2] = Water solubility of the salts; type: physicochemical; conditions: salt as isolated
# [3] = po, 1 h, read-out: ED50 in antitetrabenazine test, blockade of ptosis, oral, female mice, relief from ptosis
# [4] = po, 1 h, read-out: ED50 in antitetrabenazine test, blockade of exploratory loss (Explor.), oral, female mice, normal exploratory activity (relief from sedation)
# [5] = oral, female mice, normal exploratory activity (relief from sedation), read-out: ED50 in antitetrabenazine test, blockade of exploratory loss (Explor.)
# [6] = oral, female mice, relief from ptosis, read-out: ED50 in antitetrabenazine test, blockade of ptosis
smiles,measurement,setting,value
"CN(C)CCON=C1c2ccccc2C2C(c3ccccc31)N2C (stereo not shown) [Example 3, O-[2-(Dimethylamino)ethyl]oxime of 1a,10b-Dihydrodibenzo-[3,4,6,7]cyclohept[1,2-b]-N-methylazirin-6(1H)-one]",ED50,[1]; [3],0.65 mg/kg
same,"ED50 in antitetrabenazine test, blockade of exploratory loss (Explor.)","[1]; oral, female mice, normal exploratory activity (relief from sedation), listed as R^2=CH2 CH2 N(CH3)2, R^1=CH3, Z=--, 60 min",0.93 mg/kg
c1ccc2c(c1)C(=NOCCN1CCCCC1)c1ccccc1C1NC21 (stereo not shown) [R^2=drawing 45; R^1=H; Z=--],ED50,[1]; [4],> 81 mg/kg
same,ED50,[1]; [3],8.3 mg/kg
CN(C)CCON=C1c2ccccc2C2C(c3ccccc31)N2CC1CCC1 (stereo not shown) [Example 22],ED50,[1]; [4],16 mg/kg
same,ED50,[1]; [3],10.8 mg/kg
CN(C)CCON=C1c2ccccc2C2C(c3ccccc31)N2CC1CC1 (stereo not shown) [Example 21],ED50,[1]; [4],11.8 mg/kg
same,ED50,[1]; [3],10.8 mg/kg
"CN(C)CCC=C1c2ccccc2CCc2ccccc21 [AMTRIPTYLINE, amitriptyline, reference compound]",ED50,[1]; [5],2.6 mg/kg
same,ED50,[1]; [6],1.2 mg/kg
CNCCON=C1c2ccccc2C2NC2c2ccccc21 (stereo not shown) [Example 20],water solubility (in words),[2],Water Soluble
same,"ED50 in antitetrabenazine test, blockade of exploratory loss (Explor.)","[1]; oral, female mice, normal exploratory activity (relief from sedation), listed as R^2=CH2 CH2 NHCH3, R^1=H, Z=drawing 42, 60 min",6.2 mg/kg
same,"ED50 in antitetrabenazine test, blockade of ptosis","[1]; oral, female mice, relief from ptosis, listed as R^2=CH2 CH2 NHCH3, R^1=H, Z=drawing 42, 60 min",1.3 mg/kg
CN(C)CCON=C1c2ccccc2C2NC2c2ccccc21 (stereo not shown) [Example 18],water solubility (in words),[2],Water Soluble
same,"ED50 in antitetrabenazine test, blockade of exploratory loss (Explor.)","[1]; oral, female mice, normal exploratory activity (relief from sedation), listed as R^2=CH2 CH2 N(CH3)2, R^1=H, Z=. HCl, 60 min",2.2 mg/kg
same,"ED50 in antitetrabenazine test, blockade of ptosis","[1]; oral, female mice, relief from ptosis, listed as R^2=CH2 CH2 N(CH3)2, R^1=H, Z=. HCl, 60 min",1.0 mg/kg
CCCCNCCON=C1c2ccccc2C2NC2c2ccccc21 (stereo not shown) [Example 15],ED50,[1]; [4],> 81 mg/kg
same,ED50,[1]; [3],13.3 mg/kg
"CN(C)CCON=C1c2ccccc2C2NC2c2ccccc21 (stereo not shown) [Example 2, O-[2-(Dimethylamino)ethyl]oxime of 1a,10b-dihydrodibenzo[3,4,6,7]cyclohept[1,2-b]azirin-6(1H)-one]","ED50 in antitetrabenazine test, blockade of exploratory loss (Explor.)","[1]; oral, female mice, normal exploratory activity (relief from sedation), listed as R^2=CH2 CH2 N(CH3)2, R^1=H, Z=--, 60 min",1.1 mg/kg
same,"ED50 in antitetrabenazine test, blockade of ptosis","[1]; oral, female mice, relief from ptosis, listed as R^2=CH2 CH2 N(CH3)2, R^1=H, Z=--, 60 min",0.65 mg/kg
"CN(C)CCON=C1c2ccccc2C2C(c3ccccc31)N2C (stereo not shown) [Example 16, Tartaric acid Salt of O-[2-(dimethylamino)ethyl]oxime of 1a, 10b-dihydrodibenzo[3,4,6,7]cyclohept[1,2-b]-N-methylazirin-6(1H)-one]",water solubility (in words),[2],watersoluble
same,"ED50 in antitetrabenazine test, blockade of exploratory loss (Explor.)","[1]; oral, female mice, normal exploratory activity (relief from sedation), listed as R^2=CH2 CH2 N(CH3)2, R^1=CH3, Z=. Tartrate, 60 min",2.7 mg/kg
same,"ED50 in antitetrabenazine test, blockade of ptosis","[1]; oral, female mice, relief from ptosis, listed as R^2=CH2 CH2 N(CH3)2, R^1=CH3, Z=. Tartrate, 60 min",0.93 mg/kg
c1ccc2c(c1)C(=NOCCN1CCOCC1)c1ccccc1C1NC21 (stereo not shown) [R^2=drawing 46; R^1=H; Z=--],ED50,[1]; [4],16 mg/kg
same,ED50,[1]; [3],5.2 mg/kg
CN(C)CCON=C1c2ccccc2C2C(c3ccccc31)N2C(=O)c1ccccc1 (stereo not shown) [R^2=CH2 CH2 N(CH3)2; R^1=drawing 44; Z=--],ED50,[1]; [5],5.5 mg/kg
same,ED50,[1]; [6],5.2 mg/kg
CC(=O)N1C2c3ccccc3C(=NOCCN(C)C)c3ccccc3C21 (stereo not shown) [R^2=CH2 CH2 N(CH3)2; R^1=drawing 43; Z=--],ED50,[1]; [5],19 mg/kg
same,ED50,[1]; [6],13 mg/kg
NCCON=C1c2ccccc2C2NC2c2ccccc21 (stereo not shown) [Example 7],"ED50 in antitetrabenazine test, blockade of exploratory loss (Explor.)","[1]; oral, female mice, normal exploratory activity (relief from sedation), listed as R^2=CH2 CH2 NH2, R^1=H, Z=--, 60 min",6.6 mg/kg
same,"ED50 in antitetrabenazine test, blockade of ptosis","[1]; oral, female mice, relief from ptosis, listed as R^2=CH2 CH2 NH2, R^1=H, Z=--, 60 min",1.3 mg/kg
CCNCCON=C1c2ccccc2C2NC2c2ccccc21 (stereo not shown) [Example 14],ED50,[1]; [4],9 mg/kg
same,ED50,[1]; [3],4.3 mg/kg
CN(C)CCCON=C1c2ccccc2C2NC2c2ccccc21 (stereo not shown) [Example 9],ED50,[1]; [4],32 mg/kg
same,ED50,[1]; [3],18 mg/kg
CNCCON=C1c2ccccc2C2NC2c2ccccc21 (stereo not shown) [Example 8],"ED50 in antitetrabenazine test, blockade of exploratory loss (Explor.)","[1]; oral, female mice, normal exploratory activity (relief from sedation), listed as R^2=CH2 CH2 NHCH3, R^1=H, Z=--, 60 min",1.9 mg/kg
same,"ED50 in antitetrabenazine test, blockade of ptosis","[1]; oral, female mice, relief from ptosis, listed as R^2=CH2 CH2 NHCH3, R^1=H, Z=--, 60 min",0.57 mg/kg
NCCON=C1c2ccccc2C2NC2c2ccccc21 (stereo not shown) [Example 19],water solubility (in words),[2],Water Soluble
same,"ED50 in antitetrabenazine test, blockade of exploratory loss (Explor.)","[1]; oral, female mice, normal exploratory activity (relief from sedation), listed as R^2=CH2 CH2 NH2, R^1=H, Z=drawing 41, 60 min",14. mg/kg
same,"ED50 in antitetrabenazine test, blockade of ptosis","[1]; oral, female mice, relief from ptosis, listed as R^2=CH2 CH2 NH2, R^1=H, Z=drawing 41, 60 min",3.4 mg/kg
CN(C)CCON=C1c2ccccc2C2NC2c2ccccc21 (stereo not shown) [Example 17],water solubility (in words),[2],Water Soluble
same,"ED50 in antitetrabenazine test, blockade of exploratory loss (Explor.)","[1]; oral, female mice, normal exploratory activity (relief from sedation), listed as R^2=CH2 CH2 N(CH3)2, R^1=H, Z=. Tartrate, 60 min",0.57 mg/kg
same,"ED50 in antitetrabenazine test, blockade of ptosis","[1]; oral, female mice, relief from ptosis, listed as R^2=CH2 CH2 N(CH3)2, R^1=H, Z=. Tartrate, 60 min",0.33 mg/kg
